One experiment deals with T1, Cholecystokinin receptor type A (Rattus norvegicus) (UniProt P30551).
T1 sequence (whole entry): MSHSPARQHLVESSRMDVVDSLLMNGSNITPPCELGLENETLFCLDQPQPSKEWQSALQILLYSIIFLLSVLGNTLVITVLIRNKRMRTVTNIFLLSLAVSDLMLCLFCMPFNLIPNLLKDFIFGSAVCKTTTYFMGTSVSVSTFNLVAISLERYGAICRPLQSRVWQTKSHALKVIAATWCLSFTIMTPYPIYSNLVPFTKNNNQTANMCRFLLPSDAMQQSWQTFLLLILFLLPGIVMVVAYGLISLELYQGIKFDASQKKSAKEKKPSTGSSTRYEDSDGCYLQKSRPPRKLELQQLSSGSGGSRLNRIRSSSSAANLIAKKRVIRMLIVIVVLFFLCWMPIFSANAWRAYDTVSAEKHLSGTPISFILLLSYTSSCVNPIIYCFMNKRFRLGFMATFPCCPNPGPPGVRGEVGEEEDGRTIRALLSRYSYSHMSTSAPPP
The settings on record: 10 uM.
On to `O=C(NC1(C(=O)NCCc2ccccc2)Cc2ccccc2C1)OC1C2CC3CC(C2)CC1C3` (centres undefined), for which the inhibition (as a rule, the drop in the measured response relative to a control, in per cent) amounted to 22%.

In turn, `Cc1noc(C)c1-c1nc(CC(C)(NC(=O)OC2C3CC4CC(C3)CC2C4)C(=O)NCCc2ccccc2)no1` (centres undefined) yielded an inhibition of 20%.

The target of a further experiment is T2, Gastrin/cholecystokinin type B receptor (Mus musculus) (UniProt P56481).
T2 sequence (whole entry): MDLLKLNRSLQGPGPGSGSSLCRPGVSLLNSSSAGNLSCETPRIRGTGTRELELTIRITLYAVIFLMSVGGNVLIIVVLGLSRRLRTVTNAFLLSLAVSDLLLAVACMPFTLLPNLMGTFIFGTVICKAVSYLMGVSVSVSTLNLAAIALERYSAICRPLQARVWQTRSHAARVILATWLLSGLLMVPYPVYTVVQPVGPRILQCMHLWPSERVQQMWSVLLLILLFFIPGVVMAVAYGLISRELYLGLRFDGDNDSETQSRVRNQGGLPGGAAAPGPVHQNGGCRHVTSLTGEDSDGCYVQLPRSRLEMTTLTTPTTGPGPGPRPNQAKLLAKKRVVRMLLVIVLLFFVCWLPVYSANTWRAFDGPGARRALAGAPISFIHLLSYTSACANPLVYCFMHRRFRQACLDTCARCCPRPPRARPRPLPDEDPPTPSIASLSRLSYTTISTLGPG
Type of experiment: tissue-based. The settings on record: Cerebral cortex; 1 uM.
As for `CC(CCCN)(NC(=O)OC1C2CC3CC(C2)CC1C3)C(=O)NCCc1ccccc1` (centres undefined), the inhibition was 3%.

The molecule `CC(CCCN1C(=O)c2ccccc2C1=O)(NC(=O)OC1C2CC3CC(C2)CC1C3)C(=O)NCCc1ccccc1` (centres undefined) yielded an inhibition of 8%.

In another experiment the target is T3, Cholecystokinin receptor type A (Rattus norvegicus, UniProt P30551).
T3 sequence (P30551 whole entry): T1 sequence (whole entry)
Details: not given
Take `CC(Cc1c[nH]c2ccc(F)cc12)(NC(=O)OC1C2CC3CC(C2)CC1C3)C(=O)NC[C@H](NC(=O)CCC(=O)OCc1ccccc1)c1ccccc1` (some centres undefined): half-maximal inhibition (IC50) required 2650 nM.

Take `CC(=O)Nc1nc(CC(C)(NC(=O)OC2C3CC4CC(C3)CC2C4)C(=O)NCCc2ccccc2)cs1` (centres undefined): inhibition was half-maximal at 5350 nM (IC50).

For `O=C(NC1(C(=O)NCCc2ccccc2)CC2(Cc3cccc4cccc(c34)C2)C1)OC1C2CC3CC(C2)CC1C3` (centres undefined), half-maximal inhibition (IC50) was put at 7220 nM.

For the molecule `CN(C)C(=O)c1oc2ccccc2c1CC(C)(NC(=O)OC1C2CC3CC(C2)CC1C3)C(=O)NCCc1ccccc1` (centres undefined), the IC50 (commonly the midpoint of a concentration-inhibition curve) amounted to 65 nM.

The molecule `O=C(O)CCC(=O)N[C@@H](CNC(=O)C1(NC(=O)OC2C3CC4CC(C3)CC2C4)Cc2ccccc2C1)c1ccccc1` (some centres undefined) had an IC50 of 1350 nM.

Take `O=C(O)CCC(=O)N[C@@H](CNC(=O)C(Cc1c[nH]c2ccc(F)cc12)NC(=O)OC1C2CC3CC(C2)CC1C3)c1ccccc1` (some centres undefined): half-maximal inhibition (IC50) required 1910 nM.

For `CC(Cc1ccc(Oc2ccccc2)cc1)(NC(=O)OC1C2CC3CC(C2)CC1C3)C(=O)N[C@H](CO)[C@H](O)c1ccccc1` (some centres undefined), inhibition was half-maximal at 616 nM (IC50).

`Cc1noc(C)c1CC(C)(NC(=O)OC1C2CC3CC(C2)CC1C3)C(=O)NCCc1ccccc1` (centres undefined) showed an IC50 of 6940 nM.

`CC(Cc1c[nH]c2ccc(F)cc12)(NC(=O)OC1C2CC3CC(C2)CC1C3)C(=O)NC[C@H](NC(=O)CCC(=O)O)c1ccccc1` (some centres undefined) returned an IC50 of 2180 nM.

`C[C@](Cc1c[nH]c2ccc(F)cc12)(NC(=O)OC1C2CC3CC(C2)CC1C3)C(=O)NC[C@H](NC(=O)CCC(=O)O)c1ccccc1` (some centres undefined): the midpoint of inhibition, the IC50, lay at 2860 nM.

As for `CC(Cc1ccc2c(c1)C(C)(C)CCC2(C)C)(NC(=O)OC1C2CC3CC(C2)CC1C3)C(=O)NCCc1ccccc1` (centres undefined), the IC50 stood at 19800 nM.

The molecule `O=C(CCC(=O)OCc1ccccc1)N[C@@H](CNC(=O)C(Cc1c[nH]c2ccc(F)cc12)NC(=O)OC1C2CC3CC(C2)CC1C3)c1ccccc1` (some centres undefined) came in with an IC50 of 583 nM.

For the molecule `C[C@@](Cc1c[nH]c2ccccc12)(NC(=O)OC1C2CC3CC(C2)CC1C3)C(=O)N[C@H](CO)[C@H](O)c1ccccc1` (some centres undefined), the half-inhibitory concentration (IC50) stood at 681 nM.

The target in the next experiment is T2, Gastrin/cholecystokinin type B receptor (Mus musculus). Type of experiment: tissue-based. Particulars: Cerebral cortex; 10 uM.
The molecule `Cc1noc(C)c1-c1nc(CC(C)(NC(=O)OC2C3CC4CC(C3)CC2C4)C(=O)NCCc2ccccc2)no1` (centres undefined) returned an inhibition of 28%.

A further experiment deals with T1, Cholecystokinin receptor type A (Rattus norvegicus). The settings on record: 1 uM.
In turn, `COc1ccc(CC(C)(NC(=O)OC2C3CC4CC(C3)CC2C4)C(=O)N[C@H](CO)[C@H](O)c2ccccc2)cc1` (some centres undefined) showed an inhibition of 43%.

(Values after ChEMBL document CHEMBL1130500 (Bioorg Med Chem Lett, 1997).)
